# Experimental data: paper PMC5090206, “Fluselenamyl: A Novel Benzoselenazole Derivative for PET Detection of Amyloid Plaques (Aβ) in Alzheimer’s Disease” (Scientific Reports, 2016)
# Target: Aβ plaques (Homo sapiens, UniProt P05067)
# Assay: Ex vivo autoradiography of APP/PS1 Tg and WT mouse brain sections
# Assay type: in vivo
# Settings: for target/reference count intensity ratio (mean ± SD): 30 min post injection, cortex and amygdala vs hypothalamus; for target/reference count intensity ratio: brain stem as reference region
# Description: Uptake in brain and other critical organs was analyzed in terms of percent injected dose per gram of the tissue (%ID/g) SI Table 1. For in vivo imaging of Aβ plaques, the basic pharmacokinetic model in normal brains involves a high initial penetration of the agent, accompanied by facile clearance due to lack of a binding target. […] For comparison, brain uptake ratios of [^18F]-AV-45 (2 min/2 h) and [^18F]-Florbetaben (2 min/4 h) in normal mice are 4.07 (%ID/g (brain): 2 min: 7.33 ± 1.54; 2 h: 1.80 ± 0.07; 7.33/1.80; 4.07)[10] and 5.0 (%ID/g (brain): 2 min: 4.77; 4 h: 0.95; 4.77/0.95; 5.02)[46], respectively. […] For an agent to be able to serve as an Aβ-imaging agent, literature precedents indicate that brain uptake ratio (%ID/g; the earliest time–point; 2–5 min to that of the latest time point; typically for carbon-11; 30–60 min; and F-18, 2 h) of 3.5 or above could be considered as a benchmark for ability of a given agent to cross the blood-brain barrier. Additionally, the brain uptake of a given imaging agent is also a net function of several components, such as cerebral regional blood flow, BBB permeability, plasma radiotracer concentration, and free fractions of the radiotracer in plasma and in the brain. Furthermore, the lipophilicity of a given compound also reflects a critical physicochemical trait for neuroimaging radiotracers due to its direct relationship to membrane permeability, solubility in water, and entropic contribution to binding. Literature precedents indicate that lipophilic drugs readily cross the BBB, although other chemical characteristics, including the number of hydrogen bonds, molecular weight, polar surface area and molecular size are also known to be critical traits for passive transport. […] Conversely, radiotracers that are too lipophilic can also bind plasma proteins, undergo fast metabolism, while also contributing to high nonspecific binding, such as white matter. […] For ROI analysis of the PET signal in brain section autoradiograms of transgenic mouse (Fig. 7A) and its WT counterpart (Fig. 7D), we used measured count densities in cortex and amygdala target regions and compared them with that of hypothalamus as reference region with a low plaque density as determined by Aβ immunostaining (Fig. 7B). […] Since brain stem was also devoid of plaques, we also analyzed the above target regions using brain stem as a reference region, and observed target/reference value in the transgenic to be 0.89 ± 0.1 compared to 0.45 ± 0.07 in the WT mouse. […]
# Sequence of Aβ plaques (P05067 672-711 limits assumed): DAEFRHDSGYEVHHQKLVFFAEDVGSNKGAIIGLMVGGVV
smiles,measurement,setting,value
CN(C)c1ncc(/C=C\c2nc3cc(OCC[18F])ccc3[se]2)cn1 [[^18F]-9],target/reference count intensity ratio (mean ± SD),24 months APP/PS1 transgenic mouse,1.88 ± 0.22
same,target/reference count intensity ratio,APP/PS1 transgenic mouse,0.89 ± 0.1
same,target/reference count intensity ratio (mean ± SD),WT control mouse,0.96 ± 0.12
same,target/reference count intensity ratio,WT mouse,0.45 ± 0.07
